Legend:
[1] = test system: mouse colon cancer cell MC-38 (PD-L1) xenograft; assay: MC38 (PD-L1) xenograft in human PD-1 transgenic C57 mice; assay type: in vivo; details: anti-PD-1 antibody 3 mg/kg ip Q2D*7, apatinib 200 mg/kg po QD*14
Method: • 1. Study purposes: Human PD-1 transgenic mice were used as test animals. The effects of anti-PD-1 antibody in combination with apartinib on human PD-1 expressed in transgenic C57 mice were evaluated, and the transgenic mice bear mouse colon cancer cell MC-38 (PD-L1) xenograft transfected with PD-L1 gene. • 2. Test antibodies and compounds: The anti-PD-1 antibody was prepared according to the method disclosed in WO2015085847 in which the corresponding code of the antibody is H005-1, and the sequences of the heavy and light chain are shown in SEQ ID NO: 7 and SEQ ID NO: 8 in the present invention. Lot number: P1512, 200 mg/vial, formulated into 20 mg/ml before use. Apatinib mesylate was prepared according to the method disclosed in CN101676267A, lot number: 668160401; molecular weight: 493.58; purity: 99.60%. • 3. Experimental animals: Human PD-1 transgenic C57 mice, specific-pathogen-free (SPF), with different body weights, 50% male and 50% female, were purchased from IsisInnovation Limited, UK. • 4. Drug preparation: Anti-PD-1 antibody (3 mg/kg): anti-PD-1 antibody stock solution (20 mg/ml) was adjusted to a concentration of 0.3 mg/ml with phosphate buffered saline (PBS), and the intraperitoneal injection volume was 0.2 ml/mouse. Apatinib (200 mg/kg): 400 mg apatinib was dissolved in 20 ml of 0.5% sodium carboxymethylcellulose (NaCMC), adjusted to 20 mg/ml, and was administered in 0.2 ml per mouse by gavage. […] The specific drug administration regimen is shown in Table 1. • 5.4 Determination of volume of xenograft and body weight of mice: Tumor volume and body weight were measured twice a week and data were recorded. • 5.5 Statistics: Excel 2003 statistical software was used: the mean was calculated by avg; the SD value was calculated by STDEV; the SEM value was calculated by STDEV/SQRT; the P value indicating the difference between groups is calculated by TTEST. […]

[2] = test system: metastatic gastric/gastroesophageal junction cancer; details: cited from earlier work
VEGFR-2 = VEGFR-2 (Homo sapiens, UniProt P35968); details: little or no inhibition on other kinases; cited from earlier work
[3] = apatinib alone compared with placebo

Sequence of VEGFR-2 (P35968 20-1356, species assumed): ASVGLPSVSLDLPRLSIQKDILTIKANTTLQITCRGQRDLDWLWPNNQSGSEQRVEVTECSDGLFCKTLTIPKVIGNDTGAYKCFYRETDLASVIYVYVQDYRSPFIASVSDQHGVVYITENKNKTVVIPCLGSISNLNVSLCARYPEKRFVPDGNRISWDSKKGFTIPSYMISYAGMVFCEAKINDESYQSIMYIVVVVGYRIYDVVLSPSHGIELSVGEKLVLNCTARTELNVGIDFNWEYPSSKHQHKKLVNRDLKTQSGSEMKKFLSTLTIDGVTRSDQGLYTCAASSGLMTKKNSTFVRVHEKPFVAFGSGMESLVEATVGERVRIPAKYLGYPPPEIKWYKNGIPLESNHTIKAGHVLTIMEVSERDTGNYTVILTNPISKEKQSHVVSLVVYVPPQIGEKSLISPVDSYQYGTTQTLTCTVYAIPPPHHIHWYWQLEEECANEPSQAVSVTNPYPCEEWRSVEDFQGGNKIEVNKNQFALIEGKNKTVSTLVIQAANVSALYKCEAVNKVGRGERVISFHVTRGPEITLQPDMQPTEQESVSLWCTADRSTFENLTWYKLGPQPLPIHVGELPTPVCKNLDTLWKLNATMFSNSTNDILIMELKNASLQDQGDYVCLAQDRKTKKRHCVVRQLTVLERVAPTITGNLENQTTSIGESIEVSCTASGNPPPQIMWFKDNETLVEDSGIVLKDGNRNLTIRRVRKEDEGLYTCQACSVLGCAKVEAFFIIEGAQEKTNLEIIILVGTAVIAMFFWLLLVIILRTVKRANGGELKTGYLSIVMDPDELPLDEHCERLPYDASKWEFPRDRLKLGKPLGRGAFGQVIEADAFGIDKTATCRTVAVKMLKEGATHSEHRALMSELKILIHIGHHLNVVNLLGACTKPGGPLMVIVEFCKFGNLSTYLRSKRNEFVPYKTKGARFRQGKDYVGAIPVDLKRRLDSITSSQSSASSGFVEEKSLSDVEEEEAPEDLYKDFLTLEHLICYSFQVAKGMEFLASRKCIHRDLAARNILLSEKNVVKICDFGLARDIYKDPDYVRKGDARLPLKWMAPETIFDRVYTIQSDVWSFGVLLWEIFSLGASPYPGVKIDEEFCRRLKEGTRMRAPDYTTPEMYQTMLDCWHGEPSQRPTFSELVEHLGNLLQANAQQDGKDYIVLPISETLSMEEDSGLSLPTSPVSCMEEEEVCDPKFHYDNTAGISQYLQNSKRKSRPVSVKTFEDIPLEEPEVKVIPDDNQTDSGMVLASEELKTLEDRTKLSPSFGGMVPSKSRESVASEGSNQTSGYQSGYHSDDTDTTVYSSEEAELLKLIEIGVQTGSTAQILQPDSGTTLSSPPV

## N#CC1(c2ccc(NC(=O)c3cccnc3NCc3ccncc3)cc2)CCCC1 [apatinib, reference compound]
[1]; RTV=VT/V0, day 21
  Relative tumor volume D21: 9.27
[1]; day 21, vs HIgG control
  % Tumor inhibition rate D21: 25.67%
[1]; day 21 after initial administration, 8 mice/group
  Mean tumor volume (mm^3) D21: 1263.86 mm^3
[2]; [3]
  prolongation of median overall survival: 1.8 months
  prolongation of median progression-free survival: 0.8 months
[2]; apatinib alone
  adverse events: controllable
VEGFR-2
  selectivity for VEGFR-2 over other kinases: highly selective for VEGFR-2

From patent US12435144B2, “Use of combination of anti-PD-1 antibody and VEGFR inhibitor in preparation of drug for treating cancers” (Suzhou Suncadia Biopharmaceuticals Co., Ltd., priority 2016, dated 2025)
